What all share (assay): KINOMEscan
Common to all, as to format: binding
Common to all, as to conditions: read-out: % control activity remaining

Test [1] concerns the target T1, FLT3 (Homo sapiens, UniProt P36888).
T1 construct: purchased Eurofins DiscoverX KINOMEscan
T1 sequence (P36888 27-993): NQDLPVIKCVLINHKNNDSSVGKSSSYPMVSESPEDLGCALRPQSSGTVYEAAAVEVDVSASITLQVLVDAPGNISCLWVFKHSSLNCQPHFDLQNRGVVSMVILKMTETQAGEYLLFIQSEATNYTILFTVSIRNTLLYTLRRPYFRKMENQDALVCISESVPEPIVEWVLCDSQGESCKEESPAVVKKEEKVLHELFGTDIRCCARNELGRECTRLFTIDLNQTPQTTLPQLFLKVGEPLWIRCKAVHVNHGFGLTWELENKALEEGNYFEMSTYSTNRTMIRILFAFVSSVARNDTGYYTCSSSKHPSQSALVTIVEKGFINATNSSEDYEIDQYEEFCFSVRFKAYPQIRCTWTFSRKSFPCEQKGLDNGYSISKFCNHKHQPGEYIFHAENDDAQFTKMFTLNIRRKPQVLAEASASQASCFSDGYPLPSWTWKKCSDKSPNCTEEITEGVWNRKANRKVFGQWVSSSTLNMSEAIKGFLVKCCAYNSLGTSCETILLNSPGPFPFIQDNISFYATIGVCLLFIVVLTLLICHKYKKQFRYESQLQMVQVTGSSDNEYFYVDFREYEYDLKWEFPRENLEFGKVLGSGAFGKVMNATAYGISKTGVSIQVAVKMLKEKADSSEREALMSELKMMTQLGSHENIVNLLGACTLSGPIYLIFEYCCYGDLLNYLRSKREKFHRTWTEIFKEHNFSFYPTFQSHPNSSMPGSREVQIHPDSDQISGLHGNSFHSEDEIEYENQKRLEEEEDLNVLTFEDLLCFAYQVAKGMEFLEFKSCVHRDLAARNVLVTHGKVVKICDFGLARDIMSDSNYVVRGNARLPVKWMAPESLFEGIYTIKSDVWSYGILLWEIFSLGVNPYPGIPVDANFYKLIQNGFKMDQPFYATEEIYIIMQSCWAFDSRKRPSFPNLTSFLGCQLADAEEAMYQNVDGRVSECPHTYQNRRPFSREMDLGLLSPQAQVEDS

The target in test [2] is T2, PDPK1 (Homo sapiens, UniProt O15530).
T2 construct: purchased Eurofins DiscoverX KINOMEscan
T2 sequence (O15530 1-556): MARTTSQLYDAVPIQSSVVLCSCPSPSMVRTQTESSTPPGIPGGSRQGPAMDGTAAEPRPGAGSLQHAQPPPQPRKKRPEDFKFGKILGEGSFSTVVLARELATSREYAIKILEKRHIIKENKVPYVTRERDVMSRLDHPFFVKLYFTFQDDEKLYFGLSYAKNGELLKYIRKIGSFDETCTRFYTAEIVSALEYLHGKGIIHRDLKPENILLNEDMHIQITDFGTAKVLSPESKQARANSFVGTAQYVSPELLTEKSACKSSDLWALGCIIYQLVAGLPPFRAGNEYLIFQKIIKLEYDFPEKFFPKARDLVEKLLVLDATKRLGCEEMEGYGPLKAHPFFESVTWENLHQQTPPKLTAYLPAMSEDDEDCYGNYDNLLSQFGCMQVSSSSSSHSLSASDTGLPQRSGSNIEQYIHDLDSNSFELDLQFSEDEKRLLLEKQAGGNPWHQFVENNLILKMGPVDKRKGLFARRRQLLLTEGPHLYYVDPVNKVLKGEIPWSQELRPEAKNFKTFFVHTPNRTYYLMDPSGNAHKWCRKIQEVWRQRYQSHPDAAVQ

Test [3] addresses T3, ITK (Homo sapiens, UniProt Q08881).
T3 construct: purchased Eurofins DiscoverX KINOMEscan
T3 sequence (Q08881 1-620): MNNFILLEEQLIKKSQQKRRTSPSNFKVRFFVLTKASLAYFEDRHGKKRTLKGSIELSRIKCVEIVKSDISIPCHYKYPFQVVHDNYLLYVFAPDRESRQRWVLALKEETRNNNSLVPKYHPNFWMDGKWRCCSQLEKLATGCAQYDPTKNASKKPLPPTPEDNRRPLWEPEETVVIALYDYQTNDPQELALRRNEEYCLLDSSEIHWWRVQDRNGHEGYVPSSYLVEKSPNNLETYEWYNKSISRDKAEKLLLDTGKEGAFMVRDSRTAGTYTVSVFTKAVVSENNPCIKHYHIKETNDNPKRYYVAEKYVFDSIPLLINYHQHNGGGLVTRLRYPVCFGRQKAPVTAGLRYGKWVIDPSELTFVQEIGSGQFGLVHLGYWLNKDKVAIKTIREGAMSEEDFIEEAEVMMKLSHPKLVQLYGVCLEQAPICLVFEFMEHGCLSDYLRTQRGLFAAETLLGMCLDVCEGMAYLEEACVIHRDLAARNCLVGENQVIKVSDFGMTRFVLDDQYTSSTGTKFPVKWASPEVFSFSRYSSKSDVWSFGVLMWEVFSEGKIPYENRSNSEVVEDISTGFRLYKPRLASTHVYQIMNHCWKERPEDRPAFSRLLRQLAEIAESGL

Test [4] has as its target T4, AKT1 (Homo sapiens, UniProt P31749).
T4 construct: purchased Eurofins DiscoverX KINOMEscan

Test [5] addresses T5, MST3 (Homo sapiens, UniProt Q9Y6E0).
T5 construct: purchased Eurofins DiscoverX KINOMEscan

For test [6], the target named is T6, MYLK (Homo sapiens, UniProt Q15746).
T6 construct: purchased Eurofins DiscoverX KINOMEscan
T6 sequence (Q15746 whole entry): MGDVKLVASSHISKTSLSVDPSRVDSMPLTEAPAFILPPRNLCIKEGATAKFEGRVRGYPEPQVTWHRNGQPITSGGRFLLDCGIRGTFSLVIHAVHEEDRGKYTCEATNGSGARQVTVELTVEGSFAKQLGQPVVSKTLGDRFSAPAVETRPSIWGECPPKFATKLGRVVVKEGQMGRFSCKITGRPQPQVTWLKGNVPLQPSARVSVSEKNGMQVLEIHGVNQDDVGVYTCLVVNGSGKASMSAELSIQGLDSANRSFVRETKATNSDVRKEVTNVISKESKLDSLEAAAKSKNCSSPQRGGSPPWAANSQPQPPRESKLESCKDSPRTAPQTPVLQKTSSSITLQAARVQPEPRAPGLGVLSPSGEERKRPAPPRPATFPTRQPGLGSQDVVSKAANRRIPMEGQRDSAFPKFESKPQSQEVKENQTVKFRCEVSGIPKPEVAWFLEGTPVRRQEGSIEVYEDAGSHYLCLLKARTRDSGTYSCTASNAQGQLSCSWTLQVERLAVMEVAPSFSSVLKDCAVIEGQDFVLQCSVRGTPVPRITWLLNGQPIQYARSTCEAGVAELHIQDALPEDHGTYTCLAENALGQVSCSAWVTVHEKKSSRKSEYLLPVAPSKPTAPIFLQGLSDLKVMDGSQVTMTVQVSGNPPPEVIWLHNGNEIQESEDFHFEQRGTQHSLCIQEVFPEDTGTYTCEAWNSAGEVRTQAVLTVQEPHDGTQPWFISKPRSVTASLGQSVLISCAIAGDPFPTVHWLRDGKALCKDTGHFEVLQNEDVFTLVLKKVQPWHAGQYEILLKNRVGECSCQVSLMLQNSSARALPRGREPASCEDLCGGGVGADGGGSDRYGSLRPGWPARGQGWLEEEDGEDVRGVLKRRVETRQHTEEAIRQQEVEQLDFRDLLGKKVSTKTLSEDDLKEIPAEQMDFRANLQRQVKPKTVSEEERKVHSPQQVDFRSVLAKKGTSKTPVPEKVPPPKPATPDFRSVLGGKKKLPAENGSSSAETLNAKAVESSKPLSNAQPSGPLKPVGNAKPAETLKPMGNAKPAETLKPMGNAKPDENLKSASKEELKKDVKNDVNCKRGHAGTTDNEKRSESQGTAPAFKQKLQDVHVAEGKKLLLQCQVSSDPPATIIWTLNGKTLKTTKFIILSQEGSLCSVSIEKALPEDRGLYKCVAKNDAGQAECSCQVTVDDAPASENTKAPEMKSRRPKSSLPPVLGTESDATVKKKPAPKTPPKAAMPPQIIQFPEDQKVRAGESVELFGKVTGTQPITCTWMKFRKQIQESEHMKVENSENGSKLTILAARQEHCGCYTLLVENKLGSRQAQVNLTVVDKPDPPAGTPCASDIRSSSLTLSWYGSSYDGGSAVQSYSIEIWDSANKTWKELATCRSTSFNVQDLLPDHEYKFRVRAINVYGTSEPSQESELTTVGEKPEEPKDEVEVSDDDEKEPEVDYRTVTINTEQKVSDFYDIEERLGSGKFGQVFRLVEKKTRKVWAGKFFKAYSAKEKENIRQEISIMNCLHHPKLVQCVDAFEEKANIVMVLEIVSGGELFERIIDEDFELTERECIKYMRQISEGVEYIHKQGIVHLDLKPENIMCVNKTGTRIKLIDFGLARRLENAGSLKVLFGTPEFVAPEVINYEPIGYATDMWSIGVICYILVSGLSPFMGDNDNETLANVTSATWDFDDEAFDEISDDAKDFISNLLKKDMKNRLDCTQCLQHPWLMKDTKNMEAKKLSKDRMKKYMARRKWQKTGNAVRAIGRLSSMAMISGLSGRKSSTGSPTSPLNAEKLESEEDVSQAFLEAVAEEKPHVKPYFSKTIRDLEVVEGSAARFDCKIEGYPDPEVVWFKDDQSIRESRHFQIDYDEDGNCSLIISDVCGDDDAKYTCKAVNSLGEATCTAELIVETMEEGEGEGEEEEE

T5 sequence (Q9Y6E0 whole entry): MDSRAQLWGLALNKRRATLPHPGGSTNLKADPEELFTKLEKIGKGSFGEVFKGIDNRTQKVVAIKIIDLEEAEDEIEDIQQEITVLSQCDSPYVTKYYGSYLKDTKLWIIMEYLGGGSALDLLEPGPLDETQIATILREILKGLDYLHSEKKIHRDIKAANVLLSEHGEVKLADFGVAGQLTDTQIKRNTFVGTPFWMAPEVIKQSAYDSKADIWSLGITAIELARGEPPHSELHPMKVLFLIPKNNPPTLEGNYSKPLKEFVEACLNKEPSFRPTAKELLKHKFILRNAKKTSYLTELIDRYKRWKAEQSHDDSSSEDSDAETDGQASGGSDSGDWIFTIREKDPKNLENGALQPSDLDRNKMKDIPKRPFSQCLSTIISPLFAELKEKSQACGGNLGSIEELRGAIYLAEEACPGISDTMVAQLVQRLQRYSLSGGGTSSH
T4 sequence (P31749 whole entry): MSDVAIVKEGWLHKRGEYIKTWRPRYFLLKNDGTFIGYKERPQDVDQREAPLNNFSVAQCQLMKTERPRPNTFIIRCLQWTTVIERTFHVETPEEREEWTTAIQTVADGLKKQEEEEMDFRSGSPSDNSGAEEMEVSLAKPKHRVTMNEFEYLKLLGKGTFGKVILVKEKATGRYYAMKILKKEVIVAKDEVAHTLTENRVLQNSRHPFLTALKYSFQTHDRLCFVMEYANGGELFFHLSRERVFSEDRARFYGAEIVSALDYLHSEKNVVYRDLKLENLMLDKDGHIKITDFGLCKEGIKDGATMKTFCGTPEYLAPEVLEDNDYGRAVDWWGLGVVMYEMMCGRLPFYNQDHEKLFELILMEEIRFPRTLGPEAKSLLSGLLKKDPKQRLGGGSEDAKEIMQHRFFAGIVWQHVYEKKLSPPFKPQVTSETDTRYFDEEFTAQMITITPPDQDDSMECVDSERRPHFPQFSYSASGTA

Regarding `Clc1cc(NCC2CC2)c2ncc(-c3ccc4[nH]ncc4c3)n2n1` [compound 2, 6-Chloro-N-(cyclopropylmethyl)-3-(1H-indazol-5-yl)imidazo[1,2-b]pyridazin-8-amine], the remaining binding at 1 µM in test [1] is 2.5%; in test [2], 88%; in test [3] it was 92%; in test [4], 98%; in test [5], 100%; in test [6], 79%.

As for `O=C(CN1CCOCC1)N[C@H]1CC[C@H](Nc2cc(Cl)nn3c(-c4ccc5[nH]ncc5c4)cnc23)CC1` [compound 26], the remaining binding at 1 µM in test [1] was 3%; in test [2], 100%; in test [3] it was 84%; in test [4], 100%; in test [5], 91%; in test [6], 42%.

As to `CN1CCC(CNc2cc(Cl)nn3c(-c4cc5nc(Nc6ccccc6)[nH]c5cc4F)cnc23)CC1` [compound 31, 6-Chloro-3-(6-fluoro-2-(phenylamino)-1H-benzo[d]imidazol-5-yl)-N-((1-methylpiperidin-4-yl)methyl)imidazo[1,2-b]pyridazin-8-amine], the remaining binding at 1 µM worked out at 83% in test [1]; 100% in test [2]; 91% in test [3]; 100% in test [4]; 92% in test [5]; 81% in test [6].
